ChEMBL document CHEMBL4330061, “Antitumoral activity of quinoxaline derivatives: A systematic review” (Eur J Med Chem, 2019)
pIC50: −log10 of the molar value.

Key:
[1] = tested on: A549; experiment: Antiproliferative activity against human A549 cells after 48 hrs by MTT assay; type: functional, cell-based; settings: A549, 48 h
[2] = tested on: MCF7; experiment: Antiproliferative activity against human MCF7 cells after 48 hrs by MTT assay; type: functional, cell-based; settings: MCF7, 48 h

pIC50 [1] | pIC50 [2] | Structure (SMILES)
5.52 | 5.72 | COc1ccc(C2C3CCc4ccc(OC)cc4C3=NN2c2nc3nc4ccccc4nc3s2)cc1 (centres undefined)
5.37 | 5.63 | C#Cc1cccc(Nc2ncnc3cc(OCCOC)c(OCCOC)cc23)c1 [ERLOTINIB]
